Test system: MOLM-13 cells
Assay: In vitro proliferation (Cell Titer Glo, 6 days) of Compound 51 in combination with gilteritinib, midostaurin, idarubicin or decitabine, MOLM-13
Type: cell-based, human
Set-up: key to maxR call (synergy/antagonism), combination with Gilteritinib on MOLM-13 cell proliferation / Synergy/antagonism call (maxR test), MOLM-13 Cell Proliferation: synergy is indicated by “**”; antagonism is indicated by “*”; no asterisk: absence of any asterisk indicates an additive effect
Description: 3) In Vitro Proliferation—Menin-MLL Inhibitor in Combination with FLT3 Inhibitor (Gilteritinib or Midostaurin), DNA Intercalating Agent (Idarubicin) or Hypomethylating Agent (Decitabine)
The effect of Compound 51 in combination with gilteritinib, midostaurin, idarubicin or decitabine was determined in proliferation assays.
AML cell lines MOLM-13, OCI-AML3 and MV4-11 were purchased from DSMZ. MOLM-13 were grown in RPMI medium supplemented with 10% Fetal Bovine Serum (FBS) and 1% penicillin/streptomycin. MV4-11 cells were grown in IMDM medium supplemented with 10% FBS and 1% penicillin/streptomycin. OCI-AML3 cells were cultured in 80-90% alpha-MEM (with or without ribo- and deoxyribonucleosides)+10-20% FBS. All cell lines were cultured at 37° C. in 5% CO2 atmosphere.
AML cell lines (10-20×10^3 cells/well) were seeded in 96-well plates and grown for 6 days in serum (10%)-containing medium in the presence or absence of inhibitors at the indicated concentrations. Proliferation was analyzed by means of a Cell Titer Glo assay using the […] (Promega, Madison, WI, USA), according to the manufacturer's instructions. Data are mean with standard deviation from two to four independent experiments in technical triplicates.
R-based Biochemically Intuitive Generalized Loewe (BIGL) model implemented with a highest single agent (HSA) null model. Specifically, the BIGL methodology was applied to calculate drug-drug interactions (Van der Borght, K., Tourny, A., Bagdziunas, R. et al. BIGL: Biochemically Intuitive Generalized Loewe null model for prediction of the expected combined effect compatible with partial agonism and antagonism. Sci Rep 7, 17935 (2017); Thas, O., Tourny, A., Verbist, B., Hawinkel, S., Nazarov, M., Mutambanengwe, K., & Bijnens, L. Statistical detection of synergy: New methods and a comparative study. Pharmaceutical Statistics (2021)).
Synergy matrix results of the BIGL analysis of the cell line data with HSA as mean model calculated on the basis of the cellular metabolic activity using Cell Titer-Glo assay. Bootstrap confidence intervals are indicated. Effect sizes and their confidence intervals are shown. […] No significant average effect if zero is included in the interval.

[1] = Compound 51 0.05 μm, Gilteritinib 0.01 μM
[2] = Compound 51 0.1 μm + Decitabine 0.015 μM
[3] = Compound 51 0.1 μm + Decitabine 0.15 μM
[4] = Compound 51 0.1 μm + Idarubicin 0.001 μM
[5] = Compound 51 0.1 μm + Midostaurin 0.006 μM
[6] = Compound 51 0.1 μm + Midostaurin 0.025 μM
[7] = Compound 51 0.1 μm, Gilteritinib 0.01 μM
[8] = Compound 51 1 μm + Decitabine 0.15 μM
[9] = Compound 51 1 μm + Idarubicin 0.001 μM
[10] = Compound 51 1 μm + Midostaurin 0.006 μM
[11] = Compound 51 1 μm + Midostaurin 0.025 μM
[12] = Compound 51 10 μm + Decitabine 0.015 μM
[13] = Compound 51 10 μm + Decitabine 0.15 μM
[14] = Compound 51 10 μm, Gilteritinib 0.01 μM
[15] = Compound 51 10 μm, Gilteritinib 0.05 μM

## CC(=O)N1CCC(CN2CC[C@@H](Cc3cn(-c4ccc(F)cc4C(=O)N(C)C(C)C)c4cncc(C)c34)C2)CC1 [Compound 51]
Compound 51 0.05 μm, Gilteritinib 0.005 μM
  Effect size (BIGL, HSA null model), combination with Gilteritinib on MOLM-13 cell proliferation: −0.14
[1]
  Effect size (BIGL, HSA null model), combination with Gilteritinib on MOLM-13 cell proliferation: −0.32
  maxR call (synergy/antagonism), combination with Gilteritinib on MOLM-13 cell proliferation: **
Compound 51 0.05 μm, Gilteritinib 0.05 μM
  Effect size (BIGL, HSA null model), combination with Gilteritinib on MOLM-13 cell proliferation: −0.22
Compound 51 0.05 μm, Gilteritinib 0.1 μM
  Effect size (BIGL, HSA null model), combination with Gilteritinib on MOLM-13 cell proliferation: −0.14
Compound 51 0.05 μm, Gilteritinib 1 μM
  Effect size (BIGL, HSA null model), combination with Gilteritinib on MOLM-13 cell proliferation: −0.01
Compound 51 0.1 μm + Decitabine 0.0015 μM
  Effect size (BIGL, HSA null model), MOLM-13 Cell Proliferation: −0.01
[2]
  Effect size (BIGL, HSA null model), MOLM-13 Cell Proliferation: −0.33
  Synergy/antagonism call (maxR test), MOLM-13 Cell Proliferation: **
[3]
  Effect size (BIGL, HSA null model), MOLM-13 Cell Proliferation: −0.35
  Synergy/antagonism call (maxR test), MOLM-13 Cell Proliferation: **
Compound 51 0.1 μm + Decitabine 1.5 μM
  Effect size (BIGL, HSA null model), MOLM-13 Cell Proliferation: −0.05
Compound 51 0.1 μm + Decitabine 3 μM
  Effect size (BIGL, HSA null model), MOLM-13 Cell Proliferation: −0.03
Compound 51 0.1 μm + Idarubicin 0.0005 μM
  Effect size (BIGL, HSA null model), MOLM-13 Cell Proliferation: −0.13
[4]
  Effect size (BIGL, HSA null model), MOLM-13 Cell Proliferation: −0.42
  Synergy/antagonism call (maxR test), MOLM-13 Cell Proliferation: **
Compound 51 0.1 μm + Idarubicin 0.0025 μM
  Effect size (BIGL, HSA null model), MOLM-13 Cell Proliferation: −0.23
Compound 51 0.1 μm + Idarubicin 0.005 μM
  Effect size (BIGL, HSA null model), MOLM-13 Cell Proliferation: −0.11
Compound 51 0.1 μm + Idarubicin 0.05 μM
  Effect size (BIGL, HSA null model), MOLM-13 Cell Proliferation: 0.02
Compound 51 0.1 μm + Idarubicin 0.5 μM
  Effect size (BIGL, HSA null model), MOLM-13 Cell Proliferation: 0.02
Compound 51 0.1 μm + Midostaurin 0.0012 μM
  Effect size (BIGL, HSA null model), MOLM-13 Cell Proliferation: −0.08
[5]
  Effect size (BIGL, HSA null model), MOLM-13 Cell Proliferation: −0.23
  Synergy/antagonism call (maxR test), MOLM-13 Cell Proliferation: **
[6]
  Effect size (BIGL, HSA null model), MOLM-13 Cell Proliferation: −0.17
  Synergy/antagonism call (maxR test), MOLM-13 Cell Proliferation: **
Compound 51 0.1 μm + Midostaurin 0.05 μM
  Effect size (BIGL, HSA null model), MOLM-13 Cell Proliferation: −0.08
Compound 51 0.1 μm + Midostaurin 0.1 μM
  Effect size (BIGL, HSA null model), MOLM-13 Cell Proliferation: −0.04
Compound 51 0.1 μm + Midostaurin 0.5 μM
  Effect size (BIGL, HSA null model), MOLM-13 Cell Proliferation: −0.02
Compound 51 0.1 μm, Gilteritinib 0.0005 μM
  Effect size (BIGL, HSA null model), combination with Gilteritinib on MOLM-13 cell proliferation: −0.03
Compound 51 0.1 μm, Gilteritinib 0.005 μM
  Effect size (BIGL, HSA null model), combination with Gilteritinib on MOLM-13 cell proliferation: −0.13
[7]
  Effect size (BIGL, HSA null model), combination with Gilteritinib on MOLM-13 cell proliferation: −0.3
  maxR call (synergy/antagonism), combination with Gilteritinib on MOLM-13 cell proliferation: **
Compound 51 0.1 μm, Gilteritinib 0.05 μM
  Effect size (BIGL, HSA null model), combination with Gilteritinib on MOLM-13 cell proliferation: −0.24
Compound 51 0.1 μm, Gilteritinib 0.1 μM
  Effect size (BIGL, HSA null model), combination with Gilteritinib on MOLM-13 cell proliferation: −0.14
Compound 51 0.1 μm, Gilteritinib 1 μM
  Effect size (BIGL, HSA null model), combination with Gilteritinib on MOLM-13 cell proliferation: −0.01
Compound 51 1 μm + Decitabine 0.0015 μM
  Effect size (BIGL, HSA null model), MOLM-13 Cell Proliferation: 0.03
Compound 51 1 μm + Decitabine 0.015 μM
  Effect size (BIGL, HSA null model), MOLM-13 Cell Proliferation: −0.1
[8]
  Effect size (BIGL, HSA null model), MOLM-13 Cell Proliferation: −0.38
  Synergy/antagonism call (maxR test), MOLM-13 Cell Proliferation: **
Compound 51 1 μm + Idarubicin 0.0005 μM
  Effect size (BIGL, HSA null model), MOLM-13 Cell Proliferation: −0.08
[9]
  Effect size (BIGL, HSA null model), MOLM-13 Cell Proliferation: −0.38
  Synergy/antagonism call (maxR test), MOLM-13 Cell Proliferation: **
Compound 51 1 μm + Idarubicin 0.0025 μM
  Effect size (BIGL, HSA null model), MOLM-13 Cell Proliferation: −0.24
Compound 51 1 μm + Idarubicin 0.005 μM
  Effect size (BIGL, HSA null model), MOLM-13 Cell Proliferation: −0.11
Compound 51 1 μm + Idarubicin 0.05 μM
  Effect size (BIGL, HSA null model), MOLM-13 Cell Proliferation: 0.02
Compound 51 1 μm + Idarubicin 0.5 μM
  Effect size (BIGL, HSA null model), MOLM-13 Cell Proliferation: 0.02
Compound 51 1 μm + Midostaurin 0.0012 μM
  Effect size (BIGL, HSA null model), MOLM-13 Cell Proliferation: −0.03
[10]
  Effect size (BIGL, HSA null model), MOLM-13 Cell Proliferation: −0.18
  Synergy/antagonism call (maxR test), MOLM-13 Cell Proliferation: **
[11]
  Effect size (BIGL, HSA null model), MOLM-13 Cell Proliferation: −0.19
  Synergy/antagonism call (maxR test), MOLM-13 Cell Proliferation: **
Compound 51 1 μm + Midostaurin 0.05 μM
  Effect size (BIGL, HSA null model), MOLM-13 Cell Proliferation: −0.08
Compound 51 1 μm + Midostaurin 0.1 μM
  Effect size (BIGL, HSA null model), MOLM-13 Cell Proliferation: −0.04
Compound 51 1 μm + Midostaurin 0.5 μM
  Effect size (BIGL, HSA null model), MOLM-13 Cell Proliferation: −0.02
Compound 51 1 μm, Gilteritinib 0.0005 μM
  Effect size (BIGL, HSA null model), combination with Gilteritinib on MOLM-13 cell proliferation: 0.03
Compound 51 1 μm, Gilteritinib 0.005 μM
  Effect size (BIGL, HSA null model), combination with Gilteritinib on MOLM-13 cell proliferation: −0.1
Compound 51 1 μm, Gilteritinib 0.01 μM
  Effect size (BIGL, HSA null model), combination with Gilteritinib on MOLM-13 cell proliferation: −0.22
Compound 51 1 μm, Gilteritinib 0.05 μM
  Effect size (BIGL, HSA null model), combination with Gilteritinib on MOLM-13 cell proliferation: −0.25
Compound 51 1 μm, Gilteritinib 0.1 μM
  Effect size (BIGL, HSA null model), combination with Gilteritinib on MOLM-13 cell proliferation: −0.14
Compound 51 1 μm, Gilteritinib 1 μM
  Effect size (BIGL, HSA null model), combination with Gilteritinib on MOLM-13 cell proliferation: −0.01
Compound 51 10 μm + Decitabine 0.0015 μM
  Effect size (BIGL, HSA null model), MOLM-13 Cell Proliferation: −0.06
[12]
  Effect size (BIGL, HSA null model), MOLM-13 Cell Proliferation: −0.16
  Synergy/antagonism call (maxR test), MOLM-13 Cell Proliferation: **
[13]
  Effect size (BIGL, HSA null model), MOLM-13 Cell Proliferation: −0.38
  Synergy/antagonism call (maxR test), MOLM-13 Cell Proliferation: **
Compound 51 10 μm + Decitabine 1.5 μM
  Effect size (BIGL, HSA null model), MOLM-13 Cell Proliferation: −0.05
Compound 51 10 μm + Decitabine 3 μM
  Effect size (BIGL, HSA null model), MOLM-13 Cell Proliferation: −0.03
Compound 51 10 μm, Gilteritinib 0.0005 μM
  Effect size (BIGL, HSA null model), combination with Gilteritinib on MOLM-13 cell proliferation: −0.05
Compound 51 10 μm, Gilteritinib 0.005 μM
  Effect size (BIGL, HSA null model), combination with Gilteritinib on MOLM-13 cell proliferation: −0.17
[14]
  Effect size (BIGL, HSA null model), combination with Gilteritinib on MOLM-13 cell proliferation: −0.26
  maxR call (synergy/antagonism), combination with Gilteritinib on MOLM-13 cell proliferation: **
[15]
  Effect size (BIGL, HSA null model), combination with Gilteritinib on MOLM-13 cell proliferation: −0.27
  maxR call (synergy/antagonism), combination with Gilteritinib on MOLM-13 cell proliferation: **
Compound 51 10 μm, Gilteritinib 0.1 μM
  Effect size (BIGL, HSA null model), combination with Gilteritinib on MOLM-13 cell proliferation: −0.14
Compound 51 10 μm, Gilteritinib 1 μM
  Effect size (BIGL, HSA null model), combination with Gilteritinib on MOLM-13 cell proliferation: −0.01
In combination with Midostaurin 6 to 25 nM, MOLM-13
  combination effect on proliferation at low doses of Midostaurin: synergized
In combination with decitabine, MOLM-13, 6-day CellTiter-Glo matrix
  combination effect on proliferation (cytotoxicity): synergistically cytotoxic
In combination with gilteritinib 500 pM, MOLM-13
  combination effect on proliferation at low doses of gilteritinib: synergistic effect
In combination with gilteritinib, MOLM-13, 6-day CellTiter-Glo matrix
  combination effect on proliferation (cytotoxicity): not antagonistically cytotoxic
In combination with idarubicin, MOLM-13, 6-day Cell Titer-Glo matrix
  combination effect on proliferation (cytotoxicity): synergistically cytotoxic
In combination with midostaurin, MOLM-13, 6-day CellTiter-Glo matrix
  combination effect on proliferation (cytotoxicity): not antagonistically cytotoxic

From patent publication US20260191835A1, “COMBINATIONS COMPRISING A MENIN-MLL INHIBITOR AND AT LEAST ONE OTHER THERAPEUTIC AGENT” (JANSSEN PHARMACEUTICA NV, priority 2022, published 2026)
